Test results as given in paper PMC4138103 (PLoS ONE, 2014).

Assays:
[1] = system: Nicotinic receptor subunits α4 and β2; assay: Brain [3H]epibatidin binding in exposed rats; assay type: in vivo, Rattus norvegicus; details: males
Protocol: The membrane containing pellet was homogenized in 15 volumes of 50 mM Tris-HCl buffer at pH 7.4, incubated at 25°C for 30 min, and centrifuged again at 100 000 g. The pellet from the second centrifugation was dissolved in 4 ml 0.32 M sucrose/g brain (v/w), with a final protein concentration of […] and frozen at −40°C.
Nicotinic receptor subunits α4 and β2 were analyzed as above with the following modifications: 8 µl (0.1 mg protein) of the same membrane preparation was incubated with 415–472 µl buffer (50 mM tris-HCL, pH 7.4), 0.1–1 nM [^3H]epibatidin and 0.1 mM (-)nicotine for measuring unspecific binding, to a final volume of 500 µl. […] The samples were incubated with [^3H]epibatidin for 1 h followed by vacuum filtration and scintillation counting.
Samples were vacuum filtrated trough Whatman glassfiber-filters (type GF/B, 25 mm) and washed 3×3 ml ice-cold incubation buffer. To reduce unspecific binding, the filters where pre-wetted in 1% polyetylenimine for 60 min. The filters were placed into a filtration bucket and coupled to a mechanical vacuum pump. After filtration the bucket was disassembled and the filters transferred into plastic tubes and 4 ml filtercount fluid was added. Radioactive binding was measured as disintegration per minute (DPM1) in a scintillation counter (Tri-Carb 3100TR, Perkin Elmer). The analyses were carried out in duplicates

human TTR = biological target: T1, human TTR (Homo sapiens, UniProt P02766); details: ref Hamers et al. 2011, cited from earlier work
T1 construct: purchased Sigma Aldrich

[2] = total dose 1000 mg/kg bw, group mean

Question: With `Clc1cc(Cl)c(-c2cc(Cl)c(Cl)c(Cl)c2Cl)cc1Cl` [PCB 180, 2,2′,3′,4,4′,5,5′-heptachlorobiphenyl] as the compound, how does the “Specific binding of [3H]epibatidin to high or low affinity sites of nicotinic receptor subunit α4/β2 vs controls” value ([1]; 1000 mg/kg bw) read?
Answer: The value was “no significant difference”.

Question: What about the “High affinity nicotinic receptor binding (α4/β2)” value [1, 2] of the same compound?
Answer: Its value is 656 DPM1.

Question: And the “Low affinity nicotinic receptor binding (α4/β2)” value [1, 2]?
Answer: Its value is 1492 DPM1.

Question: What about the “T4 displacement, Pilot experiment” value (human TTR; @10000 nM) of the same compound?
Answer: Its value is 27% T4 displacement @10000 nM.

Question: And the IC50 (human TTR; TTR binding)?
Answer: The IC50 was > 15 µM.
